Measurements from patent publication US20050011468A1, “Use of methylnaltrexone in treating gastrointestinal dysfunction in equines” (priority 2002, published 2005).

What was measured:
gut motility = conditions: β-endorphin homologues from six species; read-out: IC50 on the standard model of gut motility; cited from earlier work
morphine-induced rage = conditions: in an animal; cited from earlier work
[1] = test system: bowel peristalsis / gastric emptying; conditions: one burn patient with postoperative colic; infusion 0.3 mg/kg over 15 minutes; during drug administration; cited from earlier work
[2] = cited from earlier work
[3] = in vivo; cited from earlier work
[4] = test system: bowel peristalsis / gastric emptying; experiment: postoperative colic (ileus) in a burn patient treated with methylnaltrexone infusion; type: in vivo, human; conditions: following administration of the drug (unpublished data)
Excerpt: Recent human data support the role of endogenous opioids, including endorphins, in the pathogenesis of postoperative ileus in humans. See Taguchi A., et al., “Selective postoperative inhibition of gastrointestinal opioid receptors,” New Engl. J. Med. 345:935-40, 2001. No reference is made to either equine colic or the etiology of perioperative management of equines or other animals. […] Prior to administration, there had been no evidence of bowel peristalsis and no passage of flatus. See Moss J., et al., “Selective postoperative inhibition of gastrointestinal opioid receptors,” (correspondence) New Engl. J. Med. 346(6):455 (2002).

In the case of “human endorphin: human homologue of β-endorphin, IC50 printed as 'that of humans'”, the IC50 (gut motility) is listed as 12.2 nM.
In the case of `C[N@+]1(CC2CC2)CC[C@]23c4c5ccc(O)c4O[C@H]2C(=O)CC[C@@]3(O)[C@H]1C5` [methylnaltrexone], the “severity of morphine-induced rage” value (morphine-induced rage) is given as “minimize the severity”, the “bowel sounds and flatus” value [1] is given as “prompt restoration of bowel sounds and flatus” and the “absorption after oral administration” value ([2]; from the stomach and bowel) is given as “rapidly absorbed”. The “time to initial plasma levels” value ([2]; oral administration, non-enteric coated compound) was 5 to 10 min, the “crossing of the blood-brain-barrier” value [3] was “does not cross the blood-brain-barrier” and the gastric residuals [4] was “markedly reduced”.
